Legend:
Format in all cases: in vivo
[1] = test system: Diabrotica balteata (Corn Root Worm); experiment: Activity against Diabrotica balteata (corn root worm), maize sprouts sprayed; details: 96 h, application rate 200 ppm, L2 larvae, 4 days after infestation, read-out: effect in at least one of the two categories (mortality or growth inhibition)
Description: Example B1: Activity Against Diabrotica balteata (Corn Root Worm)
Maize sprouts placed onto an agar layer in 24-well microtiter plates were treated with aqueous test solutions prepared from 10,000 ppm DMSO stock solutions by spraying. After drying, the plates were infested with L2 larvae (6 to 10 per well). The samples were assessed for mortality and growth inhibition in comparison to untreated samples 4 days after infestation.

[2] = test system: Euschistus heros (Neotropical Brown Stink Bug); experiment: Activity against Euschistus heros (neotropical brown stink bug), soybean leaves sprayed; details: 120 h, application rate 200 ppm, N2 nymphs, 5 days after infestation, read-out: effect in at least one of the two categories (mortality or growth inhibition)
Description: Example B2: Activity Against Euschistus heros (Neotropical Brown Stink Bug)
Soybean leaves on agar in 24-well microtiter plates were sprayed with aqueous test solutions prepared from 10,000 ppm DMSO stock solutions. After drying the leaves were infested with N2 nymphs. The samples were assessed for mortality and growth inhibition in comparison to untreated samples 5 days after infestation.

[3] = test system: Plutella xylostella (Diamond Back Moth); experiment: Activity against Plutella xylostella (diamond back moth), artificial diet; details: 192 h, application rate 200 ppm, eggs, 8 days after infestation, read-out: effect in at least one of the two categories (mortality or growth inhibition)
Description: Example B3: Activity Against Plutella xylostella (Diamond Back Moth)
24-well microtiter plates with artificial diet were treated with aqueous test solutions prepared from 10,000 ppm DMSO stock solutions by pipetting. After drying, Plutella eggs were pipetted through a plastic stencil onto a gel blotting paper and the plate was closed with it. The samples were assessed for mortality and growth inhibition in comparison to untreated samples 8 days after infestation.

[4] = test system: Myzus persicae (Green Peach Aphid); experiment: Activity against Myzus persicae (green peach aphid), feeding/contact activity; details: 144 h, application rate 200 ppm, feeding/contact, mixed ages, 6 days after infestation, read-out: mortality
Description: Example B4: Activity Against Myzus persicae (Green Peach Aphid) Feeding/Contact Activity
Sunflower leaf discs were placed onto agar in a 24-well microtiter plate and sprayed with aqueous test solutions prepared from 10,000 ppm DMSO stock solutions. After drying, the leaf discs were infested with an aphid population of mixed ages. The samples were assessed for mortality 6 days after infestation.

[5] = test system: Spodoptera littoralis (Egyptian Cotton Leaf Worm); experiment: Activity against Spodoptera littoralis (Egyptian cotton leaf worm), cotton leaf discs; details: foliar, 72 h, application rate 200 ppm, L1 larvae, 3 days after infestation, read-out: control (mortality, anti-feedant effect or growth inhibition)
Description: Example B5: Activity Against Spodoptera littoralis (Egyptian Cotton Leaf Worm)
Cotton leaf discs were placed onto agar in 24-well microtiter plates and sprayed with aqueous test solutions prepared from 10,000 ppm DMSO stock solutions. After drying the leaf discs were infested with five L1 larvae. The samples were assessed for mortality, anti-feeding effect, and growth inhibition in comparison to untreated samples 3 days after infestation. Control of Spodoptera littoralis by a test sample is given when at least one of the categories mortality, anti-feedant effect, and growth inhibition is higher than the untreated sample.

CCS(=O)(=O)c1cc(Oc2ccccn2)cnc1-c1ncc2c(OCC(F)(F)C(F)(F)F)cccn12 [Compound P36, 3-[3-ethylsulfonyl-5-(2-pyridyloxy)-2-pyridyl]-8-(2,2,3,3,3-penta-fluoropropoxy)imidazo [1,5-a]pyridine]
≥ 80%: percent effect (mortality or growth inhibition) at 200 ppm [1] | percent effect (mortality or growth inhibition) at 200 ppm [2] | percent effect (mortality or growth inhibition) at 200 ppm [3] | mortality at 200 ppm [4]

CCS(=O)(=O)c1cc(N(C)C(C)=O)cnc1-c1ncc2c(OCC(F)(F)C(F)(F)F)cccn12 [Compound P39, N-[5-ethylsulfonyl-6-[8-(2,2,3,3,3-penta-fluoropropoxy)imidazo [1,5-a]pyridin-3-yl]-3-pyridyl]-N-methyl-acetamide]
≥ 80%: percent effect (mortality or growth inhibition) at 200 ppm [2] | percent effect (mortality or growth inhibition) at 200 ppm [3] | mortality at 200 ppm [4]

CCS(=O)(=O)c1cc(N=S(C)(C)=O)cnc1-c1ncc2c(OCC(F)(F)C(F)(F)F)cccn12 [Compound P45, [5-ethylsulfonyl-6-[8-(2,2,3,3,3-penta-fluoropropoxy)imidazo [1,5-a]pyridin-3-yl]-3-pyridyl]imino-dimethyl-oxo-λ^6-sulfane]
≥ 80%: percent effect (mortality or growth inhibition) at 200 ppm [2] | percent effect (mortality or growth inhibition) at 200 ppm [3] | mortality at 200 ppm [4]

CCSc1cc(OC(C)(C)C#N)cnc1-c1ncc2c(OCC(F)(F)C(F)(F)F)nccn12 [Compound P50, 2-[[5-ethylsulfanyl-6-[8-(2,2,3,3,3-penta-fluoropropoxy)imidazo [1,5-a]pyrazin-3-yl]-3-pyridyl]oxy]-2-methyl-propanenitrile]
≥ 80%: percent effect (mortality or growth inhibition) at 200 ppm [1] | percent effect (mortality or growth inhibition) at 200 ppm [2] | percent effect (mortality or growth inhibition) at 200 ppm [3] | percent control (mortality, anti-feedant effect or growth inhibition) at 200 ppm [5]

CCS(=O)(=O)c1cc(C2(C#N)CC2)cnc1-c1ncc2c(OCC(F)(F)C(F)(F)F)cccn12 [Compound P35, 1-[5-ethylsulfonyl-6-[8-(2,2,3,3,3-penta-fluoropropoxy)imidazo [1,5-a]pyridin-3-yl]-3-pyridyl]cyclopropane-carbonitrile]
≥ 80%: percent effect (mortality or growth inhibition) at 200 ppm [1] | percent effect (mortality or growth inhibition) at 200 ppm [2] | percent effect (mortality or growth inhibition) at 200 ppm [3] | percent control (mortality, anti-feedant effect or growth inhibition) at 200 ppm [5]

CCS(=O)(=O)c1cc(OC(C)(C)C#N)cnc1-c1ncc2c(OCC(F)(F)C(F)(F)F)cccn12 [Compound P47, 2-[[5-ethylsulfonyl-6-[8-(2,2,3,3,3-penta-fluoropropoxy)imidazo [1,5-a]pyridin-3-yl]-3-pyridyl]oxy]-2-methyl-propanenitrile]
≥ 80%: percent effect (mortality or growth inhibition) at 200 ppm [1] | percent effect (mortality or growth inhibition) at 200 ppm [2] | percent effect (mortality or growth inhibition) at 200 ppm [3] | mortality at 200 ppm [4]

CCS(=O)(=O)c1ccc(N(C)C(=O)NC)nc1-c1ncc2c(OCC(F)(F)C(F)(F)F)nccn12 [Compound P14, 1-[5-ethylsulfonyl-6-[8-(2,2,3,3,3-penta-fluoropropoxy)imidazo [1,5-a]pyrazin-3-yl]-2-pyridyl]-1,3-dimethyl-urea]
≥ 80%: percent effect (mortality or growth inhibition) at 200 ppm [1] | percent effect (mortality or growth inhibition) at 200 ppm [3] | mortality at 200 ppm [4] | percent control (mortality, anti-feedant effect or growth inhibition) at 200 ppm [5]

CCS(=O)(=O)c1ccc(NC)nc1-c1ncc2c(OCC(F)(F)C(F)(F)F)cccn12 [Compound P31, 5-ethylsulfonyl-N-methyl-6-[8-(2,2,3,3,3-penta-fluoropropoxy)imidazo [1,5-a]pyridin-3-yl]pyri-din-2-amine]
≥ 80%: percent effect (mortality or growth inhibition) at 200 ppm [1] | percent effect (mortality or growth inhibition) at 200 ppm [3] | mortality at 200 ppm [4] | percent control (mortality, anti-feedant effect or growth inhibition) at 200 ppm [5]
